Values quoted from earlier work as cited in US20090030079A1 (priority 2007, published 2009).
Like-named read-outs stand apart in the source and are kept apart here.

Tests used:
[1] = Pd^2+, cited from earlier work
[2] = Cr^2+; cited from earlier work
[3] = Bi^3+, cited from earlier work
[4] = Fe^2+; cited from earlier work

With NCCNCCNCCN [Trientine, N,N′-bis (2-aminoethyl)-1,2-ethanediamine] as the molecule, how does the “binding stability constant (log K)” value [1] read?
Its value is 39.4.

And the “binding stability constant (log K)” value ([1]; listed as trientine)?
Its value is “very strongly”.

And the “binding stability constant (log K)” value [2]?
Its value is 7.9.

What about the “binding stability constant (log K)” value [3] of the same molecule?
The value was 21.9.

And the “binding stability constant (log K)” value ([3]; listed as trientine)?
The value was “very strongly”.

And the “binding stability constant (log K)” value [4]?
Its value is 7.76.
